This experiment concerns the target human capsaicin receptor (VR1) (Homo sapiens, UniProt Q8NER1). The experiment can be described thus: Capsaicin receptor binding assay ([3H]RTX competition, VR1-transfected HEK293 membranes).
human capsaicin receptor (VR1), sequence (Q8NER1 whole entry): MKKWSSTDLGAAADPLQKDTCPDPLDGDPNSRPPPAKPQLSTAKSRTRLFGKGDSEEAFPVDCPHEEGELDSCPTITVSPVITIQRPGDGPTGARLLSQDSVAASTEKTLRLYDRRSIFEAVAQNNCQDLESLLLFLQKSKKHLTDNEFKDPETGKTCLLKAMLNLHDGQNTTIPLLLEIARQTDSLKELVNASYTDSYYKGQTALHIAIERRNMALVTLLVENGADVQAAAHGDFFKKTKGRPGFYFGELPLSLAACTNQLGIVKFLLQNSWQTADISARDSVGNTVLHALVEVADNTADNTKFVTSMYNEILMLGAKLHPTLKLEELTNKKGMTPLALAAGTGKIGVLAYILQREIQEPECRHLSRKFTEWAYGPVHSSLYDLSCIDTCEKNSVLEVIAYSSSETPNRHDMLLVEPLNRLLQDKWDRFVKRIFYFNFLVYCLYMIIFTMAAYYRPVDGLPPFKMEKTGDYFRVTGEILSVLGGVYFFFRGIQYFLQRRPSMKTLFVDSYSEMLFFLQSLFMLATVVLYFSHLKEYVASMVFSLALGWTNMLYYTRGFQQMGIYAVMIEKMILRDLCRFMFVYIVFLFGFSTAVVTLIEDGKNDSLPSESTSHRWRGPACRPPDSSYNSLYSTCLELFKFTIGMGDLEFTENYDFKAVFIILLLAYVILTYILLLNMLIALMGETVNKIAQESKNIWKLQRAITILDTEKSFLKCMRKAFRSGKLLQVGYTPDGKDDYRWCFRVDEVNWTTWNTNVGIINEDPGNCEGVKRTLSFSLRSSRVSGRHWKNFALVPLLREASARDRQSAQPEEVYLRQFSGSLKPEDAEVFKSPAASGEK
Turning to `CCOCc1nc(Nc2ccc(C(F)(F)F)cc2)c2ccc(-c3ncccc3Cl)cc2n1` [Compound 81, [7-(3-Chloro-pyridin-2-yl)-2-ethoxymethyl-quinazolin-4-yl]-(4-trifluoromethyl-phenyl)-amine], the Ki (usually a measure of affinity in units of concentration, obtained from inhibition or displacement) is less than 1000 nM. In the case of `CCOCc1nc(Nc2ccc(C(C)(C)C)nc2)c2ccc(-c3ncccc3Cl)cc2n1` [Compound 82, (6-tert-Butyl-pyridin-3-yl)-[7-(3-chloro-pyridin-2-yl)-2-ethoxymethyl-quinazolin-4-yl]-amine], the Ki is less than 1000 nM. Turning to `COCCOCc1nc(Nc2ccc(C(C)(C)C#N)cc2)c2ccc(-c3ncccc3Cl)nc2n1` [Compound 83, 2-{4-[7-(3-Chloro-pyridin-2-yl)-2-(2-methoxy-ethoxymethyl)-pyrido[2,3-d]pyrimidin-4-ylamino]-phenyl}-2-methyl-propionitrile], the Ki is less than 1000 nM. On to `CCC(C)c1ccc(Nc2nc(COCCOC)nc3nc(-c4ncccc4Cl)ccc23)cc1` (stereo not drawn) [Compound 84, (4-sec-Butyl-phenyl)-[7-(3-chloro-pyridin-2-yl)-2-(2-methoxy-ethoxymethyl)-pyrido[2,3-d]pyrimidin-4-yl]-amine], for which the Ki is less than 1000 nM. The figure for `COCCc1nc(Nc2ccc(C(F)(F)F)cc2)c2ccc(-c3ncccc3Cl)nc2n1` [Compound 85, [7-(3-Chloro-pyridin-2-yl)-2-(2-methoxy-ethyl)-pyrido[2,3-d]pyrimidin-4-yl]-(4-trifluoromethyl-phenyl)-amine] is less than 1000 nM. For the molecule `FC(F)(F)c1ccc(Nc2nc(COC3CCOCC3)nc3cc(-c4ncccc4C(F)(F)F)ccc23)cc1` [Compound 86, [2-(Tetrahydro-pyran-4-yloxymethyl)-7-(3-trifluoromethyl-pyridin-2-yl)-quinazolin-4-yl]-(4-trifluoromethyl-phenyl)-amine], the Ki was less than 1000 nM. For `CN(C)CCOCc1nc(Nc2ccc(C(F)(F)F)cc2)c2ccc(-c3ncccc3C(F)(F)F)cc2n1` [Compound 87, [2-(2-Dimethylamino-ethoxymethyl)-7-(3-trifluoromethyl-pyridin-2-yl)-quinazolin-4-yl]-(4-trifluoromethyl-phenyl)-amine], the Ki is less than 1000 nM. The molecule `COCc1nc(Nc2ccc(C(F)(F)F)cc2)c2ccc(-c3ncccc3C)nc2n1` [Compound 88, [2-Methoxymethyl-7-(3-methyl-pyridin-2-yl)-pyrido[2,3-d]pyrimidin-4-yl]-(4-trifluoromethyl-phenyl)-amine] came in with a Ki of less than 1000 nM. With `CN(C)CCCOCc1nc(Nc2ccc(C(F)(F)F)cc2)c2ccc(-c3ncccc3C(F)(F)F)cc2n1` [Compound 89, [2-(3-Dimethylamino-propoxymethyl)-7-(3-trifluoromethyl-pyridin-2-yl)-quinazolin-4-yl]-(4-trifluoromethyl-phenyl)-amine], the Ki is less than 1000 nM.

`CCOCc1nc(Nc2ccc(C(F)(F)F)cc2)c2ccc(-c3ncccc3C)cc2n1` [Compound 90, [2-Ethoxymethyl-7-(3-methyl-pyridin-2-yl)-quinazolin-4-yl]-(4-trifluoromethyl-phenyl)-amine] had a Ki of less than 1000 nM. In the case of `Cc1cccnc1-c1ccc2c(Nc3ccc(C(F)(F)F)cc3)nc(COC(C)C)nc2c1` [Compound 91, [2-Isopropoxymethyl-7-(3-methyl-pyridin-2-yl)-quinazolin-4-yl]-(4-trifluoromethyl-phenyl)-amine] it was less than 1000 nM; in that of `Cc1cccnc1-c1ccc2c(Nc3ccc(C(F)(F)F)cc3)nc(COC3CCOCC3)nc2c1` [Compound 92, [7-(3-Methyl-pyridin-2-yl)-2-(tetrahydro-pyran-4-yloxymethyl)-quinazolin-4-yl]-(4-trifluoromethyl-phenyl)-amine], less than 1000 nM.

Consider `CCC(C)c1ccc(Nc2nc(COC)nc3nc(-c4ncccc4C(F)(F)F)ccc23)cc1` (stereo not drawn) [Compound 93, (4-sec-Butyl-phenyl)-[2-methoxymethyl-7-(3-trifluoromethyl-pyridin-2-yl)-pyrido[2,3-d]pyrimidin-4-yl]-amine], for which the Ki was less than 1000 nM. `COCc1nc(Nc2ccc(C(C)C(F)(F)F)cc2)c2ccc(-c3ncccc3C(F)(F)F)nc2n1` (stereo not drawn) [Compound 94, [2-Methoxymethyl-7-(3-trifluoromethyl-pyridin-2-yl)-pyrido[2,3-d]pyrimidin-4-yl]-[4-(2,2,2-trifluoro-1-methyl-ethyl)-phenyl]-amine] returned a Ki of less than 1000 nM. `COCc1nc(Nc2ccc(C(C)(C)C)cc2)c2ccc(-c3ncccc3C)nc2n1` [Compound 95, (4-tert-Butyl-phenyl)-[2-methoxymethyl-7-(3-methyl-pyridin-2-yl)-pyrido[2,3-d]pyrimidin-4-yl]-amine] had a Ki of less than 1000 nM. Take `COCc1nc(Nc2ccc(C(C)C)cc2)c2ccc(-c3ncccc3C)nc2n1` [Compound 96, (4-Isopropyl-phenyl)-[2-methoxymethyl-7-(3-methyl-pyridin-2-yl)-pyrido[2,3-d]pyrimidin-4-yl]-amine]: the Ki is less than 1000 nM. In turn, `CCC(C)c1ccc(Nc2nc(COC)nc3nc(-c4ncccc4C)ccc23)cc1` (stereo not drawn) [Compound 97, (4-sec-Butyl-phenyl)-[2-methoxymethyl-7-(3-methyl-pyridin-2-yl)-pyrido[2,3-d]pyrimidin-4-yl]-amine] returned a Ki of less than 1000 nM. On to `COCc1nc(Nc2ccc(C(C)(C)C#N)cc2)c2ccc(-c3ncccc3C)nc2n1` [Compound 98, 2-{4-[2-Methoxymethyl-7-(3-methyl-pyridin-2-yl)-pyrido[2,3-d]pyrimidin-4-ylamino]-phenyl}-2-methyl-propionitrile], for which the Ki was less than 1000 nM. `CCOC(=O)c1nc(Nc2ccc(C(F)(F)F)cc2)c2ccc(-c3ncccc3C(F)(F)F)cc2n1` [Compound 99, 4-(4-Trifluoromethyl-phenylamino)-7-(3-trifluoromethyl-pyridin-2-yl)-quinazoline-2-carboxylic acid ethyl ester]: the Ki was less than 1000 nM.

Take `O=C(O)c1nc(Nc2ccc(C(F)(F)F)cc2)c2ccc(-c3ncccc3C(F)(F)F)cc2n1` [Compound 100, 4-(4-Trifluoromethyl-phenylamino)-7-(3-trifluoromethyl-pyridin-2-yl)-quinazoline-2-carboxylic acid]: the Ki is less than 1000 nM.

The molecule `CC(C)c1ccc(Nc2nc(COC3CCOCC3)nc3cc(-c4ncccc4C(F)(F)F)ccc23)cc1` [Compound 101, (4-Isopropyl-phenyl)-[2-(tetrahydro-pyran-4-yloxymethyl)-7-(3-trifluoromethyl-pyridin-2-yl)-quinazolin-4-yl]-amine] showed an inhibitory constant (Ki) of less than 1000 nM.

Turning to `FC(F)(F)c1ccc(Nc2nc(COC3CCOCC3)nc3cc(-c4ncccc4Cl)ccc23)cc1` [Compound 102, [7-(3-Chloro-pyridin-2-yl)-2-(tetrahydro-pyran-4-yloxymethyl)-quinazolin-4-yl]-(4-trifluoromethyl-phenyl)-amine], the Ki was less than 1000 nM. As to `CC(C)c1ccc(Nc2nc(COC3CCOCC3)nc3cc(-c4ncccc4Cl)ccc23)cc1` [Compound 103, [7-(3-Chloro-pyridin-2-yl)-2-(tetrahydro-pyran-4-yloxymethyl)-quinazolin-4-yl]-(4-isopropyl-phenyl)-amine], the Ki was less than 1000 nM. In turn, `CCOCc1nc(Nc2ccc(C(C)C)cc2)c2ccc(-c3ncccc3C)cc2n1` [Compound 104, [2-Ethoxymethyl-7-(3-methyl-pyridin-2-yl)-quinazolin-4-yl]-(4-isopropyl-phenyl)-amine] registered an inhibition constant (Ki) of less than 1000 nM.
